Measurements published in patent US11518755B2, “Stable solutions of multicyclic antidepressants” (Leyden Technologies B.V., priority 2017, dated 2022).

Assay: Solubility of clozapine in different solvent systems (excess clozapine, shaken 24 hours, HPLC)
Type: physicochemical
Method: For clozapine, solutions of 20 mg/mL or more are preferred for oral administration of the solution. For soft gel capsules an even higher concentration is preferable. Therefore, a solubility study for clozapine was performed. An excess of clozapine was weighed in a HPLC vial and 1.0 mL of various solvent systems was added. Following, the mixture was placed on a mechanical shaker for 24 hours at 200 RPM and analysed by HPLC for clozapine content.

CN1CCN(C2=Nc3cc(Cl)ccc3Nc3ccccc32)CC1 [Clozapine, 8-Chloro-11-(4-methylpiperazin-1-yl)-5H-dibenzo[b,e][1,4]diazepine]
clozapine content after 24 hours (solvent system: 0.1% acetic acid in water): 4.7 mg/mL | clozapine content after 24 hours (solvent system: 1% acetic acid in water): 38.1 mg/mL | clozapine content after 24 hours (solvent system: 1% citric acid in water): 27.6 mg/mL | clozapine content after 24 hours (solvent system: 5% Transcutol P in PEG400): 91.8 mg/mL | clozapine content after 24 hours (solvent system: 5% acetic acid in water): 51.5 mg/mL | clozapine content after 24 hours (solvent system: 5% citric acid in water): 34.2 mg/mL | clozapine content after 24 hours (solvent system: 10% Transcutol P in PEG400): 91.3 mg/mL | clozapine content after 24 hours (solvent system: 10% acetic acid in water): 59.8 mg/mL | clozapine content after 24 hours (solvent system: 10% citric acid in water): 50.7 mg/mL | clozapine content after 24 hours (solvent system: 20% Kolliphor RH40/PEG400 (10:90)): 72.8 mg/mL | clozapine content after 24 hours (solvent system: 20% Transcutol P in PEG400): 99.5 mg/mL | clozapine content after 24 hours (solvent system: 20% kolliphor RH40 in water): 7.4 mg/mL | clozapine content after 24 hours (solvent system: 40% corn oil in miglyol): 8.4 mg/mL | clozapine content after 24 hours (solvent system: 50% solutol in water): 17.8 mg/mL | clozapine content after 24 hours (solvent system: 50% solutol/PEG400 (10:90)): 81.6 mg/mL | clozapine content after 24 hours (solvent system: 100% Transcutol P): 151.3 mg/mL | clozapine content after 24 hours (solvent system: Caprylocaproyl macrogol-8 glycerides (Labrasol ®)): 34.0 mg/mL | clozapine content after 24 hours (solvent system: Citrate buffer pH 3.4): 57.2 mg/mL | clozapine content after 24 hours (solvent system: Citrate buffer pH 3.7): 44.0 mg/mL | clozapine content after 24 hours (solvent system: Citrate buffer pH 4.0): 34.3 mg/mL | clozapine content after 24 hours (solvent system: Citrate buffer pH 4.7): 19.9 mg/mL | clozapine content after 24 hours (solvent system: Corn oil): 5.1 mg/mL | clozapine content after 24 hours (solvent system: N,N′-dimethyl acetamide (DMA)): 106.8 mg/mL | clozapine content after 24 hours (solvent system: N-methyl-2-pyrrolydone (NMP)): 409.7 mg/mL | clozapine content after 24 hours (solvent system: PEG200): 81.8 mg/mL | clozapine content after 24 hours (solvent system: PEG400): 77.0 mg/mL | clozapine content after 24 hours (solvent system: PEG400/34 mmol Citrate buffer, 20:80 (V/V)): 52.7 mg/mL | clozapine content after 24 hours (solvent system: PEG400/34 mmol Citrate buffer, 40:60 (V/V)): 52.3 mg/mL | clozapine content after 24 hours (solvent system: PEG400/34 mmol Citrate buffer, 60:40 (V/V)): 47.6 mg/mL | clozapine content after 24 hours (solvent system: PEG400/34 mmol Citrate buffer, 80:20 (V/V)): 49.8 mg/mL | clozapine content after 24 hours (solvent system: PEG400/Citrate buffer pH 4.0, 50:50 (V/V)): 33.4 mg/mL | clozapine content after 24 hours (solvent system: PEG400/Citrate buffer pH 4.0, 60:40 (V/V)): 29.6 mg/mL | clozapine content after 24 hours (solvent system: PEG400/Citrate buffer pH 4.0, 70:30 (V/V)): 32.1 mg/mL | clozapine content after 24 hours (solvent system: PEG400/Citrate buffer pH 4.0, 80:20 (V/V)): 44.6 mg/mL | clozapine content after 24 hours (solvent system: PEG400/Citrate buffer pH 4.0, 90:10 (V/V)): 56.2 mg/mL | clozapine content after 24 hours (solvent system: PEG400/water (50:50)): 2.3 mg/mL | clozapine content after 24 hours (solvent system: PEG400/water (60:40)): 6.5 mg/mL | clozapine content after 24 hours (solvent system: PEG400/water (70:30)): 14.0 mg/mL | clozapine content after 24 hours (solvent system: PEG400/water (80:20)): 31.1 mg/mL | clozapine content after 24 hours (solvent system: PEG600/water (90:10)): 65.2 mg/mL | clozapine content after 24 hours (solvent system: ethanol): 33.9 mg/mL | clozapine content after 24 hours (solvent system: glycerol): 0.5 mg/mL | clozapine content after 24 hours (solvent system: miglyol): 10.3 mg/mL | clozapine content after 24 hours (solvent system: water): 0.3 mg/mL
